The values that follow come from the supplement of paper PMC10307832.

What all share (experiment): relative viability (nuclei count vs DMSO), 5 days (fraction); higher = more cells survive
Compound in the experiment “Vorinostat + Decitabine”: O=C(CCCCCCC(=O)Nc1ccccc1)NO [Vorinostat] + Nc1ncn([C@H]2C[C@H](O)[C@@H](CO)O2)c(=O)n1 [Decitabine] (partner 2 µM)
In a few lines: (§1)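 Each reported value is a median over duplicate plates. It expresses relative viability: treated-well nuclei count divided by vehicle-well nuclei count. Lung cancer cell lines in 1536-well plates were dosed by pin tool a day after seeding, alone with one drug or with a fixed anchor-drug dose plus five library-drug doses (not always all listed) in √10 steps, and nuclei were counted after 5 days.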

Compound in the experiment “Vorinostat + Bortezomib”: O=C(CCCCCCC(=O)Nc1ccccc1)NO [Vorinostat] + CC(C)C[C@H](NC(=O)[C@H](Cc1ccccc1)NC(=O)c1cnccn1)B(O)O [Bortezomib] (partner 0.002 µM)
The procedure, abridged:
as §1

Compound in the experiment “Vorinostat + Palbociclib”: O=C(CCCCCCC(=O)Nc1ccccc1)NO [Vorinostat] + CC(=O)c1c(C)c2cnc(Nc3ccc(N4CCNCC4)cn3)nc2n(C2CCCC2)c1=O [Palbociclib] (partner 0.5 µM)
The procedure, abridged: as §1

Compound in the experiment “Vorinostat + Pemetrexed”: O=C(CCCCCCC(=O)Nc1ccccc1)NO [Vorinostat] + Nc1nc2[nH]cc(CCc3ccc(C(=O)N[C@@H](CCC(=O)O)C(=O)O)cc3)c2c(=O)[nH]1 [Pemetrexed] (partner 0.2 µM)
In a few lines: as §1

Compound in the experiment “Vorinostat + Pictilisib”: O=C(CCCCCCC(=O)Nc1ccccc1)NO [Vorinostat] + CS(=O)(=O)N1CCN(Cc2cc3nc(-c4cccc5[nH]ncc45)nc(N4CCOCC4)c3s2)CC1 [Pictilisib] (partner 1 µM)
The procedure, abridged: as §1

Regarding HCC-827, the relative viability with Vorinostat + Decitabine (first compound 0.253 µM) was found to be 0.344; with Vorinostat + Decitabine (first compound 0.8 µM), 0.343; in the experiment with Vorinostat + Decitabine (first compound 2.53 µM), 0.274; with Vorinostat + Decitabine (first compound 8 µM) it was 0.213; in the experiment with Vorinostat + Bortezomib (first compound 0.253 µM), 1.03; in the experiment with Vorinostat + Bortezomib (first compound 0.8 µM), 1.11. For the same cell line, the relative viability with Vorinostat + Bortezomib (first compound 2.53 µM) came out at 0.913; with Vorinostat + Bortezomib (first compound 8 µM), 0.451; with Vorinostat + Palbociclib (first compound 0.253 µM), 0.576; with Vorinostat + Palbociclib (first compound 0.8 µM), 0.506; with Vorinostat + Palbociclib (first compound 2.53 µM), 0.333; with Vorinostat + Palbociclib (first compound 8 µM) it was 0.135. The relative viability was 0.269 with Vorinostat + Pemetrexed (first compound 0.253 µM); 0.278 with Vorinostat + Pemetrexed (first compound 0.8 µM); 0.212 with Vorinostat + Pemetrexed (first compound 2.53 µM); 0.153 with Vorinostat + Pemetrexed (first compound 8 µM); 1.1 with Vorinostat + Pictilisib (first compound 0.253 µM); 1.08 in the experiment with Vorinostat + Pictilisib (first compound 0.8 µM). The figures for the relative viability with Vorinostat + Pictilisib (first compound 2.53 µM) and in the experiment with Vorinostat + Pictilisib (first compound 8 µM) were 0.732 and 0.411, respectively.

As for HARA, the relative viability in the experiment with Vorinostat + Decitabine (first compound 0.253 µM) came to 0.468; with Vorinostat + Decitabine (first compound 0.8 µM), 0.367; with Vorinostat + Decitabine (first compound 2.53 µM) it was 0.194; with Vorinostat + Decitabine (first compound 8 µM) it was 0.0814; in the experiment with Vorinostat + Bortezomib (first compound 0.253 µM), 1.1; in the experiment with Vorinostat + Bortezomib (first compound 0.8 µM), 0.928. Besides, the relative viability with Vorinostat + Bortezomib (first compound 2.53 µM) worked out at 0.149; in the experiment with Vorinostat + Bortezomib (first compound 8 µM), 0.0288; with Vorinostat + Palbociclib (first compound 0.253 µM) it was 0.32; with Vorinostat + Palbociclib (first compound 0.8 µM), 0.295; in the experiment with Vorinostat + Palbociclib (first compound 2.53 µM) it was 0.184; in the experiment with Vorinostat + Palbociclib (first compound 8 µM) it was 0.133. The relative viability came to 0.239 with Vorinostat + Pemetrexed (first compound 0.253 µM); 0.217 with Vorinostat + Pemetrexed (first compound 0.8 µM); 0.205 in the experiment with Vorinostat + Pemetrexed (first compound 2.53 µM); 0.125 in the experiment with Vorinostat + Pemetrexed (first compound 8 µM); 0.483 with Vorinostat + Pictilisib (first compound 0.253 µM); 0.447 with Vorinostat + Pictilisib (first compound 0.8 µM). For the same cell line, the figures for the relative viability with Vorinostat + Pictilisib (first compound 2.53 µM) and with Vorinostat + Pictilisib (first compound 8 µM) were 0.132 and 0.102, respectively.

As to LCLC-103H, the relative viability turned out to be 0.715 with Vorinostat + Decitabine (first compound 0.253 µM); 0.766 with Vorinostat + Decitabine (first compound 0.8 µM); 0.329 with Vorinostat + Decitabine (first compound 2.53 µM); 0.363 with Vorinostat + Decitabine (first compound 8 µM); 1.16 in the experiment with Vorinostat + Bortezomib (first compound 0.253 µM); 0.893 in the experiment with Vorinostat + Bortezomib (first compound 0.8 µM). The relative viability with Vorinostat + Bortezomib (first compound 2.53 µM) is 0.391; with Vorinostat + Bortezomib (first compound 8 µM), 0.238; with Vorinostat + Palbociclib (first compound 0.253 µM) it was 0.494; with Vorinostat + Palbociclib (first compound 0.8 µM), 0.424; with Vorinostat + Palbociclib (first compound 2.53 µM) it was 0.368; in the experiment with Vorinostat + Palbociclib (first compound 8 µM), 0.302. The relative viability with Vorinostat + Pemetrexed (first compound 0.253 µM) amounted to 0.471; with Vorinostat + Pemetrexed (first compound 0.8 µM), 0.425; in the experiment with Vorinostat + Pemetrexed (first compound 2.53 µM), 0.452; with Vorinostat + Pemetrexed (first compound 8 µM), 0.32; with Vorinostat + Pictilisib (first compound 0.253 µM) it was 0.794; with Vorinostat + Pictilisib (first compound 0.8 µM), 0.55. Moreover, the relative viability in the experiment with Vorinostat + Pictilisib (first compound 2.53 µM) turned out to be 0.306; with Vorinostat + Pictilisib (first compound 8 µM) it was 0.211.

For EMC-BAC-2, the relative viability with Vorinostat + Decitabine (first compound 0.253 µM) worked out at 0.958; with Vorinostat + Decitabine (first compound 0.8 µM) it was 0.716; with Vorinostat + Decitabine (first compound 2.53 µM) it was 0.373; with Vorinostat + Decitabine (first compound 8 µM), 0.168; with Vorinostat + Bortezomib (first compound 0.253 µM), 1.22; with Vorinostat + Bortezomib (first compound 0.8 µM) it was 1.02. Moreover, the relative viability in the experiment with Vorinostat + Bortezomib (first compound 2.53 µM) came out at 0.405; with Vorinostat + Bortezomib (first compound 8 µM) it was 0.167; with Vorinostat + Palbociclib (first compound 0.253 µM), 0.49; in the experiment with Vorinostat + Palbociclib (first compound 0.8 µM) it was 0.425; with Vorinostat + Palbociclib (first compound 2.53 µM), 0.254; in the experiment with Vorinostat + Palbociclib (first compound 8 µM) it was 0.203. Besides, the relative viability stood at 0.377 in the experiment with Vorinostat + Pemetrexed (first compound 0.253 µM); 0.368 with Vorinostat + Pemetrexed (first compound 0.8 µM); 0.26 in the experiment with Vorinostat + Pemetrexed (first compound 2.53 µM); 0.208 with Vorinostat + Pemetrexed (first compound 8 µM); 0.596 in the experiment with Vorinostat + Pictilisib (first compound 0.253 µM); 0.531 with Vorinostat + Pictilisib (first compound 0.8 µM). For the same cell line, the relative viability amounted to 0.372 with Vorinostat + Pictilisib (first compound 2.53 µM) and 0.129 with Vorinostat + Pictilisib (first compound 8 µM).

For the cell line NCI-H650, the relative viability in the experiment with Vorinostat + Decitabine (first compound 0.253 µM) amounted to 0.332; with Vorinostat + Decitabine (first compound 0.8 µM) it was 0.312; in the experiment with Vorinostat + Decitabine (first compound 2.53 µM), 0.208; with Vorinostat + Decitabine (first compound 8 µM), 0.104; with Vorinostat + Bortezomib (first compound 0.253 µM), 0.523; in the experiment with Vorinostat + Bortezomib (first compound 0.8 µM), 0.42. Moreover, the relative viability with Vorinostat + Bortezomib (first compound 2.53 µM) came out at 0.19; with Vorinostat + Bortezomib (first compound 8 µM) it was 0.144; with Vorinostat + Palbociclib (first compound 0.253 µM) it was 0.338; in the experiment with Vorinostat + Palbociclib (first compound 0.8 µM), 0.319; in the experiment with Vorinostat + Palbociclib (first compound 2.53 µM), 0.159; with Vorinostat + Palbociclib (first compound 8 µM) it was 0.118. Also, the relative viability amounted to 0.953 with Vorinostat + Pemetrexed (first compound 0.253 µM); 0.918 with Vorinostat + Pemetrexed (first compound 0.8 µM); 0.287 with Vorinostat + Pemetrexed (first compound 2.53 µM); 0.11 with Vorinostat + Pemetrexed (first compound 8 µM); 0.902 with Vorinostat + Pictilisib (first compound 0.253 µM); 0.491 with Vorinostat + Pictilisib (first compound 0.8 µM). Besides, the relative viability with Vorinostat + Pictilisib (first compound 2.53 µM) stood at 0.183; with Vorinostat + Pictilisib (first compound 8 µM), 0.16.

Consider NCI-H460, for which the relative viability with Vorinostat + Decitabine (first compound 0.253 µM) came out at 0.526; with Vorinostat + Decitabine (first compound 0.8 µM), 0.377; with Vorinostat + Decitabine (first compound 2.53 µM), 0.0496; in the experiment with Vorinostat + Decitabine (first compound 8 µM), 0.0202; with Vorinostat + Bortezomib (first compound 0.253 µM) it was 1.12; in the experiment with Vorinostat + Bortezomib (first compound 0.8 µM), 0.783. The relative viability with Vorinostat + Bortezomib (first compound 2.53 µM) was 0.0198; with Vorinostat + Bortezomib (first compound 8 µM), 0.0125; with Vorinostat + Palbociclib (first compound 0.253 µM), 0.146; with Vorinostat + Palbociclib (first compound 0.8 µM), 0.0944; in the experiment with Vorinostat + Palbociclib (first compound 2.53 µM) it was 0.0356; with Vorinostat + Palbociclib (first compound 8 µM), 0.011. The relative viability with Vorinostat + Pemetrexed (first compound 0.253 µM) is 0.0729; with Vorinostat + Pemetrexed (first compound 0.8 µM) it was 0.064; with Vorinostat + Pemetrexed (first compound 2.53 µM), 0.0548; in the experiment with Vorinostat + Pemetrexed (first compound 8 µM), 0.0231; with Vorinostat + Pictilisib (first compound 0.253 µM), 0.37; with Vorinostat + Pictilisib (first compound 0.8 µM) it was 0.279. Moreover, the relative viability with Vorinostat + Pictilisib (first compound 2.53 µM) was found to be 0.208; with Vorinostat + Pictilisib (first compound 8 µM), 0.0481.

Regarding NCI-H1651, the relative viability with Vorinostat + Decitabine (first compound 0.253 µM) turned out to be 0.58; with Vorinostat + Decitabine (first compound 0.8 µM), 0.477; in the experiment with Vorinostat + Decitabine (first compound 2.53 µM), 0.202; with Vorinostat + Decitabine (first compound 8 µM), 0.0686; with Vorinostat + Bortezomib (first compound 0.253 µM) it was 0.934; in the experiment with Vorinostat + Bortezomib (first compound 0.8 µM), 0.992. Moreover, the relative viability with Vorinostat + Bortezomib (first compound 2.53 µM) amounted to 0.807; in the experiment with Vorinostat + Bortezomib (first compound 8 µM), 0.1; in the experiment with Vorinostat + Palbociclib (first compound 0.253 µM), 0.545; in the experiment with Vorinostat + Palbociclib (first compound 0.8 µM), 0.494; with Vorinostat + Palbociclib (first compound 2.53 µM), 0.154; in the experiment with Vorinostat + Palbociclib (first compound 8 µM) it was 0.0594. Further, the relative viability worked out at 0.614 with Vorinostat + Pemetrexed (first compound 0.253 µM); 0.577 with Vorinostat + Pemetrexed (first compound 0.8 µM); 0.377 in the experiment with Vorinostat + Pemetrexed (first compound 2.53 µM); 0.0787 with Vorinostat + Pemetrexed (first compound 8 µM); 0.659 with Vorinostat + Pictilisib (first compound 0.253 µM); 0.433 with Vorinostat + Pictilisib (first compound 0.8 µM). The values for the relative viability with Vorinostat + Pictilisib (first compound 2.53 µM) and in the experiment with Vorinostat + Pictilisib (first compound 8 µM) were 0.0763 and 0.0536, respectively.
